The text below walks through data of US10507213B2, “Method for treating cancer using a selenourea-coordinated gold(I)-carbene complex” (King Fahd University of Petroleum and Minerals, priority 2017, dated 2019).

Series [1] has as its system MCF7 (breast cancer cells). Kind of series: in vitro cytotoxicity, MTT assay, MCF7. Type of series: cell-based, human. The settings on record: 72 h incubation, three independent experiments, read-out: IC50 values against MCF7 cancer cell line. On the procedure:
(§1) The complexes, [Au(IPr)Cl] and [Au(IPr)(Seu)]PF6 (1) were tested for their in vitro cytotoxic effects against human cell lines; MCF7 (breast cancer), HCI15 (colon cancer) and A549 (lung carcinoma) as reported previously. See M. Altaf, M. Monim-ul-Mehboob, A. A. A. Seliman, A. A. Tsai), V. Dhuna, G. Bhatia, K. Dhuna, Synthesis, X-ray Structures, Spectroscopic Analysis and Anticancer Activity of Novel Gold(I) Carbene Complexes, J. Organomet. Chem, 765 (2014) 68-79, incorporated herein by reference in its entirety. The cells were seeded at the concentration of 3×10^3 cells/well in 100 μL of DMEM containing 10% fetal bovine serum (FBS) in a 96-well tissue culture plate and incubated for 72 h at 37° C., 5% CO2 and 90% relative humidity in a CO2 incubator. After that 100 μL of 100, 50, 25 and 12.5 μM solutions of cisplatin and gold(I) complexes prepared in DMEM were added to the cells and the cultures were incubated for 72 h. The medium in the wells was cast off and 100 μL of DMEM containing MTT (0.5 mg/ml) was added to the wells, with subsequent incubation in the CO2 incubator at 37° C. in the dark for 4 h. After incubation, purple-colored formazan produced by the cells appeared as dark crystals in the bottom of the wells. The culture medium was carefully removed from each well to prevent disruption of the monolayer and 100 μL of dimethylsulfoxide (DMSO) was added to each well. The solution in the wells was thoroughly mixed to dissolve the formazan crystals which produce a purple solution. The absorbance of the 96 well-plates was measured at 570 nm with LabSystems Multiskan EX-ELISA reader against a reagent blank. The experimental results are calculated as the micromolar concentration of 50% cell growth inhibition (IC50) of each drug. The MTT assay was carried out in three independent experiments for each analysis. […]

Series [2] has as its system A549 (lung carcinoma). Kind of series: in vitro cytotoxicity, MTT assay, A549. Type of series: cell-based, human. The settings on record: 72 h incubation, three independent experiments, read-out: IC50 values against A549 cancer cell line. On the procedure: The complexes, [Au(IPr)Cl] and [Au(IPr)(Seu)]PF6 (1) were tested for their in vitro cytotoxic effects against human cell lines; MCF7 (breast cancer), HCI15 (colon cancer) and A549 (lung carcinoma) as reported previously. See M. Altaf, M. Monim-ul-Mehboob, A. A. A. Seliman, A. A. Tsai), V. Dhuna, G. Bhatia, K. Dhuna, Synthesis, X-ray Structures, Spectroscopic Analysis and Anticancer Activity of Novel Gold(I) Carbene Complexes, J. Organomet. Chem, 765 (2014) 68-79, incorporated herein by reference in its entirety. The cells were seeded at the concentration of 3×10^3 cells/well in 100 μL of DMEM containing 10% fetal bovine serum (FBS) in a 96-well tissue culture plate and incubated for 72 h at 37° C., 5% CO2 and 90% relative humidity in a CO2 incubator. […] The medium in the wells was cast off and 100 μL of DMEM containing MTT (0.5 mg/ml) was added to the wells, with subsequent incubation in the CO2 incubator at 37° C. in the dark for 4 h. After incubation, purple-colored formazan produced by the cells appeared as dark crystals in the bottom of the wells. The culture medium was carefully removed from each well to prevent disruption of the monolayer and 100 μL of dimethylsulfoxide (DMSO) was added to each well. The solution in the wells was thoroughly mixed to dissolve the formazan crystals which produce a purple solution. The absorbance of the 96 well-plates was measured at 570 nm with LabSystems Multiskan EX-ELISA reader against a reagent blank. The experimental results are calculated as the micromolar concentration of 50% cell growth inhibition (IC50) of each drug. The MTT assay was carried out in three independent experiments for each analysis.
The complexes, [Au(Ipr)Cl] and [Au(Ipr)(Seu)]PF6 or Complex (I), as well as cisplatin (standard anticancer drug) were tested for in vitro cytotoxicity against three human cancer cell lines; A549 (lung carcinoma), HCT15 (colon cancer cells) and MCF7 (breast cancer cells) using MTT assay.
The IC50 values (as μM) obtained from the plot of the concentration of compounds against the percentage of cell viability are given in Table 4. […]

In series [3] the test system is HCT15 (colon cancer cells). Kind of series: in vitro cytotoxicity, MTT assay, HCT15. The settings on record: 72 h incubation, three independent experiments, read-out: IC50 values against HCT15 cancer cell line. The series is classed as cell-based, human. On the procedure:
as §1

The nature of series [4]: stability by square wave stripping voltammetry (SWSV) in phosphate buffer. The series is classed as physicochemical. The settings on record: phosphate buffer pH 7.0, SWSV, 50, 75 and 100 μM. On the procedure:
(§2) Electrochemical (Square wave stripping voltammetry, SWSV) measurements were performed on a CH Instrument (CHI 1232A) potentiostat. Electrochemical cell comprises of a platinum wire as a counter electrode, an Ag/AgCl saturated with KCl as reference electrode and glassy carbon electrode (GCE; 3.0 mm diameter, Model CHI104, CH Instruments, Austin, Tex.) as a working electrode inserted into 2.0 mL glass cell containing phosphate buffer solution, pH 7.0 as supporting electrolyte. 0.1 M buffer solution was prepared by mixing, appropriate volumes of 0.2 M monosodium phosphate and disodium phosphate prepared with distilled water. Stock solutions of the complex prepared with methanol, while L-tyrosine and L-tryptophan were prepared by dissolving in 0.10 M NaOH in ratio 1:4 with distilled water. GCE was polished with 0.05 μm alumina, rinsed with distilled water prior to every SWSV measurements at room temperature in a quiescent condition at potential windows between −0.20 V and 1.20 V for the stability and 0.00 V and 1.20 V for the interaction studies. Working conditions are; pulse width (increment) 4 mV, pulse height (amplitude) 25 mV and frequency, 15 Hz.
(§3) The stability and electrochemical behavior of complex 1 were examined by its electroactive properties in phosphate buffer solution of pH 7.0 using SWSV technique (Square wave stripping voltammetry). […]

Series [5] can be described thus: solubility in phosphate buffer estimated from SWSV. The series is classed as physicochemical. As to conditions: 0.1 M phosphate buffer (pH 7.0); estimation based on the highest soluble concentration. On the procedure:
as §2, §3

The nature of series [6]: stability in polar solvents. The series is classed as physicochemical. The settings on record: water, methanol, ethanol, acetone; deuterated solvents such as dichloromethane.

On to `N.N.[Cl][Pt][Cl]` [Cisplatin], for which the half-inhibitory concentration (IC50) in series [1] turned out to be 23 ± 4 µM; in series [2] it was 42 ± 2 µM; in series [3], 32 ± 2 µM.

`CC(C)c1cccc(C(C)C)c1-n1cc[n+](-c2c(C(C)C)cccc2C(C)C)[c]1[Au-][Se+]=C(N)N.F[P-](F)(F)(F)(F)F` [Complex 1, [Au(IPr)(Seu)]PF6]: the “stability in aqueous solution” value in series [4] was “stable in aqueous solution”. Besides, the 50% inhibitory concentration (IC50) in series [1] was found to be 75 ± 3 µM; in series [2] it was 82 ± 1 µM; in series [3], 76 ± 2 µM. Also, the “solubility in phosphate buffer” value in series [5] is at least 8.53 mg/100 ml. Further, the “stability in polar solvents” value in series [6] was “stable in polar solvents such as water, methanol, ethanol and acetone”.

As to “chlorido[1,3-Bis(2,6-di isopropylphenyl)imidazol-2-ylidene]gold(I) [[Au(Ipr)Cl]]”, the figures for the IC50 in series [1], in series [2] and in series [3] were 110 ± 2 µM, 180 ± 2 µM and 122 ± 1 µM, respectively.
